Reference: patent US9789095B2, “Inhibitors of calcium-activated chloride channels” (The Regents of the University of California, priority 2007, dated 2017)

Key:
CaMKII phosphorylation = CaMKII phosphorylation immunoblot in HT-29 cells; format: cell-based; settings: 30 μM pretreatment, ATP/carbachol
Text: CaMKII Regulation of CaCC activation by CaMKII occurs in a cell type-dependent manner (Hartzell et al., Annu. Rev. Physiol. 67:719-58 (2005)). CaMKII has been reported to regulate calcium-activated chloride current in HT-29 and T84 cells (Worrell et al., Am. J. Physiol. 260:C877-82 (1991); Morris et al., Am. J. Physiol. 264:C977-85 (1993); Chan et al., J. Biol. Chem. 269:32464-8 (1994); Braun et al., J. Physiol. 488:37-55 (1995)). To determine whether the CaCC inhibitors interfered with ATP/carbachol-induced CaMKII activation, CaMKII phosphorylation in HT-29 cells was measured by immunoblot analysis. Calcium/calmodulin-dependent protein kinase II (CaMKII) was activated by 2 min treatment of HT-29 cells with ATP/carbachol (each 100 μM). Cells were then lysed with cell lysis buffer (20 mM Tris-HCl (pH 7.4), 1% Triton X-100, 150 mM NaCl, 2 mM EDTA, 50 mM α-glycerolphosphate, 1 mM Na3VO4, 1 mM DTT, and complete protease inhibitor mixture (Roche Applied Science)). Cell debris was removed by centrifugation, and proteins in the supernatant were resolved by SDS-PAGE and immunoblotted using standard procedures (transfer to PDVF membrane, 1 h blocking in 5% nonfat dry milk, primary/secondary antibody incubations, enhanced chemiluminescence detection). Rabbit polyclonal antibodies for anti-phospho-CaMKII (Thr286) and β-actin were purchased from Cell Signaling Technology (Danvers, Mass.).

[1] = test system: agonist-induced [Ca2+]i elevation; assay: Cytoplasmic calcium measurement by Fura-2 fluorescence in HT-29 cells; format: cell-based, human; settings: pretreatment at high concentration prior to agonist
Experimental: [Ca^2+]i was measured in confluent monolayers of HT-29 cells after loading with Fura-2 (2 μM Fura-2-AM, 30 min, 37° C.). Labeled cells were mounted in a perfusion chamber on the stage of an inverted epifluorescence microscope. Cells were superfused with (in mM): 140 NaCl, 5 KCl, 1 MgCl2, 1 CaCl2, 10 D-glucose, and 10 HEPES (pH 7.4), initially without and then with ATP/carbachol. Test compounds were present in some experiments for 10 min prior to agonist addition. Fura-2 fluorescence was recorded at excitation wavelengths of 340 nm and 380 nm using standard procedures

[2] = test system: calcium-activated chloride channel (CaCC); assay: YFP fluorescence plate reader iodide influx assay in HT-29 cells (ATP/carbachol); format: cell-based, human; settings: semi-quantitative
Experimental: Screening was performed using a customized screening system (BECKMAN COULTER, Inc., Indianapolis, Ind.) consisting of the SAGIAN Core system integrated with SAMI software, and equipped with an ORCA arm for labware transport, a 96-channel head BIOMEK FX, CO2 incubator, plate washer, bar code reader, delidding station, and two FLUOstar OPTIMA fluorescence plate readers (BMG Labtechnologies, Durham, N.C.), each equipped with syringe pumps and custom excitation/emission filters (500/544 nm; CHROMA, Brattleboro, Vt.).
HT-29 cells expressing YFP-H148Q/I152L were plated in 96-well plates at 70% confluence. Plates were incubated overnight at 37° C., 5% CO2 and then the growth medium was replaced with fresh growth medium. […] YFP fluorescence was measured 1 s before and for 30 s after addition of a PBS-iodide solution (PBS that has 100 mM chloride replaced by iodide) containing carbachol and ATP (100 μM each). Each 96-well plate contained ‘positive’ controls (DMSO vehicle without agonists or test compounds) and ‘negative’ controls (DMSO vehicle with agonists but without test compounds). In some experiments solutions included (individually or in combination): carbachol, ATP, or histamine (at 50, 100, 150 or 200 μM), calcimycin (10 μM), thapsigargin (2 μM) and CFTRinh-172 (20 μM).
Iodide influx (d[I^−]/dt at t=0) was computed from fluorescence time course data by single exponential regression, as described (Ma et al., J. Clin. Invest. 110:1651-8 (2002)). Percentage inhibition was computed as: percentage inhibition=100×(Slopenegative control−Slopetest compound)/(Slopenegative control−Slopepositive control).

[3] = test system: calcium-activated chloride channel (CaCC); assay: Whole-cell patch-clamp of calcium-dependent chloride current in HT-29 cells; format: cell-based, human; settings: for calcium-dependent chloride current reduced: 1 μM ionomycin, HT-29; for ionomycin-induced chloride currents, symmetric NMDG-Cl solutions: whole-cell, pretreatment
Experimental: Whole cell recordings were accomplished with HT-29 cells at room temperature. The pipette solution contained (in mM): 30 CsCl, 100 Cs-aspartate, 1 MgCl2, 0.5 EGTA, 2 Tris-ATP, and 10 HEPES (pH 7.2 with CsOH), and the bath solution contained (in mM) 140 N-methyl-D-glucamine chloride (NMDG-Cl), 1 CaCl2, 1 MgCl2, 10 glucose, and 10 HEPES (pH 7.2). In one set of studies, symmetric NMDG-Cl solutions contained 140 mM NMDG-Cl, 1 mM MgCl2, 0.5 mM EGTA, 2 mM Tris-ATP, and 10 mM HEPES, pH 7.2. Pipettes were pulled from borosilicate glass and had resistances of 3-5 MΩ after fire polishing. Seal resistances were typically between 3-10 GΩ. After establishing the whole cell configuration, CaCCs were activated by 1 μM ionomycin. Whole cell currents were elicited by applying hyperpolarizing and depolarizing voltage pulses from a holding potential of 0 mV to potentials between −120 mV and +120 mV in steps of 20 mV. Currents were filtered at 5 kHz, and digitized and analyzed using an AxoScope 10.0 system and a Digidata 1440A […] (Molecular Devices, Sunnyvale, Calif.). Mean currents were expressed as current densities (picoampere per picofarad (pA/pF)).

CaCC in T84 cells = assay: Short-circuit current (chloride secretion) in T84 cell monolayers; format: cell-based, human
Experimental: ATP/carbachol were used to induce calcium-dependent chloride secretion in well-differentiated T84 cell monolayers. T84 cells were seeded at a density of 10^5 cm^−2 on permeable supports (Snapwell, 1.12 cm^2 surface area) and grown until confluent. Supports containing confluent cell monolayers were mounted in Snapwell diffusion chambers. Cells were bathed for a 30 min stabilization period in HCO3^−-buffered solution containing (mmol/L): 120 NaCl, 5 KCl, 1 MgCl2, 1 CaCl2, 10 D-glucose, 5 HEPES, and 25 NaHCO3 (pH 7.4), aerated with 95% O2/5% CO2 at 37° C. Monolayers were voltage-clamped at 0 mV (EVC4000 Multi-Channel V/I Clamp, World Precision Instruments), and short-circuit current (Isc) was recorded continuously with agonists/inhibitors added at specified times.

human wildtype CFTR = target: T1, human wildtype CFTR (Homo sapiens, UniProt P13569); assay: Iodide influx in FRT cells expressing human wildtype CFTR; format: cell-based; settings: 20 μM
T1 construct: expressed in transfected cells; host or cells: Fisher rat thyroid (FRT) cells
T1 sequence (P13569 whole entry): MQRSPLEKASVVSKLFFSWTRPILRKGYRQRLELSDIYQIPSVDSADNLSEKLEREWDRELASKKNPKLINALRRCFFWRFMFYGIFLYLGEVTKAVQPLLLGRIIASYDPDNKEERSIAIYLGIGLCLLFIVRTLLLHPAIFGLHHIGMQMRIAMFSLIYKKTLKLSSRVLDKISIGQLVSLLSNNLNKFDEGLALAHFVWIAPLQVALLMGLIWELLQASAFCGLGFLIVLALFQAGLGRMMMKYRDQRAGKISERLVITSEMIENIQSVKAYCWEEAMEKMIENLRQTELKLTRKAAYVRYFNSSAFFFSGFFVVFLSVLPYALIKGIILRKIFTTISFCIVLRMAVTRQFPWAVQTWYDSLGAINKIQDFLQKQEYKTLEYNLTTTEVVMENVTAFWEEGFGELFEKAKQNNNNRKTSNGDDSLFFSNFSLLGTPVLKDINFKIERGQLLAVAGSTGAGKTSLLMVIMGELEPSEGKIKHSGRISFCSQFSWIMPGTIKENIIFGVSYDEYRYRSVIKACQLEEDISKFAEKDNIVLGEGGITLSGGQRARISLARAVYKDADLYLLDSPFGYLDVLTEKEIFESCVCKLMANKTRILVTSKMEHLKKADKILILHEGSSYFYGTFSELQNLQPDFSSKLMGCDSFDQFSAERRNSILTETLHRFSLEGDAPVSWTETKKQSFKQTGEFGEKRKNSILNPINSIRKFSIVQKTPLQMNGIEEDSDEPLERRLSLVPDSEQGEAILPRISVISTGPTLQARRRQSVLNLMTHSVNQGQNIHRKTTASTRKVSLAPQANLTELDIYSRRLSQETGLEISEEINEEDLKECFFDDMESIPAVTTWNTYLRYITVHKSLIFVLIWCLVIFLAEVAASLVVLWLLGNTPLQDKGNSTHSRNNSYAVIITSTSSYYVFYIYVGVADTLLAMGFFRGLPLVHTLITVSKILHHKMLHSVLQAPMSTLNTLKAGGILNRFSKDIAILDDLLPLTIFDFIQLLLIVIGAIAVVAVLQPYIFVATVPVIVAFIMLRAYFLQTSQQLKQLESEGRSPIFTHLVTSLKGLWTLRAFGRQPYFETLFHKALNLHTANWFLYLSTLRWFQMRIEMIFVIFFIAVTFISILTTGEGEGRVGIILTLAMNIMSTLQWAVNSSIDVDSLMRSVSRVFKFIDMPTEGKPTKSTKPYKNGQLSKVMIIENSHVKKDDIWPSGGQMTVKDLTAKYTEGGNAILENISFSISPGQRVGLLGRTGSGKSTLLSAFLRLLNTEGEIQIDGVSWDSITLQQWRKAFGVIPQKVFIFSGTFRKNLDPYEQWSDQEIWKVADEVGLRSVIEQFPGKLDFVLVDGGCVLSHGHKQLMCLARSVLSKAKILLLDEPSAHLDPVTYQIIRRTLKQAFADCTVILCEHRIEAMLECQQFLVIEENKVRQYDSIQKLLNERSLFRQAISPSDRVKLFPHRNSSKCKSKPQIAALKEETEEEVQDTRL
Experimental: Cystic Fibrosis Transmembrane Conductance Regulator (CFTR) Experiments were performed to determine whether the compounds affected CFTR because CFTR is a major intestinal chloride channel and evidence exists for cross-talk between cAMP and calcium signaling in intestinal cell chloride secretion (Schultheiss et al., Eur. J. Pharmacol. 546:161-70 (2006); Takahashi et al., J. Med. Microbiol. 49:801-10 (2000); Chao et al., EMBO J. 13:1065-72 (1994)). As described (Ma et al., J. Clin. Invest. 110:1651-8 (2002)), FRT cells expressing human wildtype CFTR and YFP-H148Q/I152L, at 100% confluence, were washed 3 times with PBS, leaving 60 μL. CFTR was activated by a cocktail containing forskolin (20 μM), genistein (50 μM), and isobutylmethylxanthine (100 μM). Iodide influx as described in Example 1 was measured at 10 min after addition of test compounds by determining YFP fluorescence for 2 s before and 20 s after addition of 165 μl of PBS-iodide.

[4] = Aqueous solubility in PBS by optical absorbance of a saturated solution; format: physicochemical; settings: aqueous buffer, thermodynamic from solid
Text: The high aqueous solubility is a consequence of their polarity and negative charge at physiological pH.

Row | Compound | agonist-induced CaMKII phosphorylation (CaMKII phosphorylation) | ATP or carbachol-induced [Ca2+]i elevations [1] | % inhibition at 25 μM ([2]; class B aminothiazoles) [%] | calcium-dependent chloride current reduced ([3]; 0.1 μM compound) [%] | calcium-dependent chloride current reduced ([3]; 1 μM compound) [%] | calcium-dependent chloride current reduced ([3]; 10 μM compound) [%] | ionomycin-induced chloride currents, symmetric NMDG-Cl solutions [3] | ATP-induced short-circuit current reduced (CaCC in T84 cells; 10 μM compound) [%] | ATP-induced short-circuit current reduced (CaCC in T84 cells; 30 μM compound) [%] | CFTR inhibition (iodide influx), positive control (human wildtype CFTR) | solubility [4] [µM] | % inhibition at 25 μM ([2]; class A aminothiophenes) [%]
1 | 2-hydroxy-5-(4-p-tolylthiazol-2-ylamino)benzoic acid [CaCCinh-B01] | did not significantly affect | did not significantly reduce | 100 | 11±7 | 34±12 | 77±4 | reduced ionomycin-induced currents | 29±11 | 64±3 |  |  | 
2 | O=C(O)c1ccc(C=C2SC(=S)N(c3cccc(C(F)(F)F)c3)C2=O)cc1 [CFTRinh-172, 3-[(3-trifluoromethyl)phenyl]-5-[(4-carboxyphenyl)methylene]-2-thioxo-4-thiazolidinone, reference compound] |  |  |  |  |  |  |  |  |  | inhibition |  | 
3 | CC(C)(C)C1CCc2c(sc(NC(=O)c3ccco3)c2C(=O)O)C1 (centres unmarked) [CaCCinh-A01, 6-tert-butyl-2-(furan-2-carboxamido)-4,5,6,7-tetrahydrobenzo[b]thiophene-3-carboxylic acid] | did not significantly affect | did not significantly reduce |  | 38±14 | 66±10 | 91±1 | reduced ionomycin-induced currents | 38±7 | 78±3 |  | > 500 | 100
